Reference: US20250319183A1, “COMPOSITIONS AND METHODS FOR THE TREATMENT OF CANCER” (Beth Israel Deaconess Medical Center, priority 2021, published 2025)
Values belong to the compound of their own block, whether it stands above or below them. Square brackets hold non-standard residues; d marks the D form. Peptide text beside a SMILES is read from it.

Columns and labels:
THP-1 = assay: TCRL antibody binding (PR1-HLA-A2 presentation) on THP-1, flow cytometry; format: cell-based; conditions: four doses of 1 μM added twice daily for two days, then two days culture
Method: To determine the effect hypomethylation agents (HMAa) have on tumor antigen presentation, AML patient-derived tumor cells were treated for two days with four doses of 1 μM SGI-110, an HMA, added twice daily and then cultured for additional two days. TAP2 expression was assessed using immunohistochemical staining with and without treatment with SGI-110 (FIG. 3A). The HLA-A2 expressing AML cell line, THP-1, was treated for two days with four doses of 1 μM SGI-110 added twice daily and then cultured for an additional two days. The cells were then analyzed for binding capacity of a unique T cell receptor-like (TCRL) antibody. The TCRL antibody is a TCR mimic that recognizes the PR1-HLA-A2-MHC complex on the surface of leukemic cells where PR-1 is a known leukemic antigen. […] An HLA-A2 negative cell line U937 (histiocytic lymphoma) was used as a negative control.

AML cell = conditions: in combination with decitabine; cited from earlier work
[1] = system: chronic lymphocytic leukemia (CLL) and AML cells; conditions: cited from earlier work
[2] = system: multiple myeloma (MM) and AML cell lines; conditions: single agent; cited from earlier work

tumor antigen presentation, binding of TCRL antibody (THP-1): increased binding of TCRL antibody
Structure (SMILES): Nc1ncn([C@H]2C[C@H](OP(=O)(O)OCC3O[C@@H](n4cnc5c(=O)[nH]c(N)nc54)CC3O)[C@@H](CO)O2)c(=O)n1 (stereo in doubt) [SGI-110, 2′-deoxy-5-aza-cytidylyl-(3′->5′)-2′-deoxy-guanosine]

Structure (SMILES): N=C(N)NCCC[C@@H](N)C(=O)N[C@H](CCCNC(=N)N)C(=O)N[C@H](CCCNC(=N)N)C(=O)N[C@H](CCCNC(=N)N)C(=O)N[C@H](CCCNC(=N)N)C(=O)N[C@H](CCCNC(=N)N)C(=O)N[C@H](CCCNC(=N)N)C(=O)N[C@H](CCCNC(=N)N)C(=O)N[C@H](CCCNC(=N)N)C(=O)N[C@H](CS)C(=O)N[C@H](CCC(N)=O)C(=O)N[C@H](CS)C(=O)N[C@H](CCCNC(=N)N)C(=O)N[C@H](CCCNC(=N)N)C(=O)N[C@H](CCCCN)C(=O)N[C@H](CC(N)=O)C(=O)O.O=C(O)C(F)(F)F [GO-203, D-arginyl-D-arginyl-D-arginyl-D-arginyl-D-arginyl-D-arginyl-D-arginyl-D-arginyl-D-arginyl-D-cysteinyl-D-glutaminyl-D-cysteinyl-D-arginyl-D-arginyl-D-lysyl-D-asparagine trifluoroacetic acid] (H-[dR][dR][dR][dR][dR][dR][dR][dR][dR][dC][dQ][dC][dR][dR][dK][dN]-OH)
DNMT1 levels and AML cell survival (AML cell): effectively reduces DNMT1 levels and AML cell survival

Structure (SMILES): CC1(C)CCC(c2ccc(Cl)cc2)=C(CN2CCN(c3ccc(C(=O)NS(=O)(=O)c4ccc(N[C@H](CCN5CCOCC5)CSc5ccccc5)c(S(=O)(=O)C(F)(F)F)c4)cc3)CC2)C1 [navitoclax, 4-[4-[[2-(4-chlorophenyl)-5,5-dimethylcyclohexen-1-yl]methyl]piperazin-1-yl]-N-[4-[[(2R)-4-morpholin-4-yl-1-phenylsulfanylbutan-2-yl]amino]-3-(trifluoromethylsulfonyl)phenyl]sulfonylbenzamide]
anti-cancer activity [1]: anti-cancer activity

Structure (SMILES): CN(C)CC[C@H](CSc1ccccc1)Nc1ccc(S(=O)(=O)NC(=O)c2ccc(N3CCN(Cc4ccccc4-c4ccc(Cl)cc4)CC3)cc2)cc1[N+](=O)[O-] [ABT-737, 4-[4-[[2-(4-chlorophenyl)phenyl]methyl]piperazin-1-yl]-N-[4-[[(2R)-4-(dimethylamino)-1-phenylsulfanylbutan-2-yl]amino]-3-nitrophenyl]sulfonylbenzamide]
activity against cell lines [2]: single agent activity
